molecular target: ACL (Homo sapiens (Human), UniProt P53396); assay: ADP-Glo Assay
Sequence (P53396 other isoform, or with tags, fused parts or gaps isoform P53396-2): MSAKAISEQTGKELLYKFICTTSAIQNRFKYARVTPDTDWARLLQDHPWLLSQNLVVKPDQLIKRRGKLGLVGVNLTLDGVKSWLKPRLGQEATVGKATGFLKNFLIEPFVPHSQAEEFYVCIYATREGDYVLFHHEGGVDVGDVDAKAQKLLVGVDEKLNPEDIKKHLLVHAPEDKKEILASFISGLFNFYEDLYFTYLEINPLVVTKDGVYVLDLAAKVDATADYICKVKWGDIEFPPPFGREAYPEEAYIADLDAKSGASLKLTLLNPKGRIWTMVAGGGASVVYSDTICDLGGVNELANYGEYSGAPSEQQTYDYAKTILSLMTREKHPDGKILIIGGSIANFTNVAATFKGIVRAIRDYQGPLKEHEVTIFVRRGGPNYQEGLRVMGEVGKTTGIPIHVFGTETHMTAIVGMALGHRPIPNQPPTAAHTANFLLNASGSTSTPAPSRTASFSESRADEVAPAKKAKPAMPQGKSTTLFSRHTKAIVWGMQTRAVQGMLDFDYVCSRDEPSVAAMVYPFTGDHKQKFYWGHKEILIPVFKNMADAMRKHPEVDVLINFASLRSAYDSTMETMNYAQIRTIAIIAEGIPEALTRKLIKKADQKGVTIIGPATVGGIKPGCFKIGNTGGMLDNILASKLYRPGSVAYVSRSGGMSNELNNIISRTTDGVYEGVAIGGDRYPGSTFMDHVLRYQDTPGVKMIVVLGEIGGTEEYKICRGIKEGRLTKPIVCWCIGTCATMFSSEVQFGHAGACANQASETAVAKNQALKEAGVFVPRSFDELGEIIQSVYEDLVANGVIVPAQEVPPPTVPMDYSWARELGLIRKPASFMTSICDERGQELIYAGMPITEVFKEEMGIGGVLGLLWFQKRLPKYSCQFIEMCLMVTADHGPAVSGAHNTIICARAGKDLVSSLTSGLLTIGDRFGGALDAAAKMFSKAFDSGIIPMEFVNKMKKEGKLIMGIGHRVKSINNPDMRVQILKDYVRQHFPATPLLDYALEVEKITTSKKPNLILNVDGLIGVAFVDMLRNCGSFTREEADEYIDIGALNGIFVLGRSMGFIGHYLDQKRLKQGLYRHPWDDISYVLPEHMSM

IC50, 0.5 to 20 µM:
O=C(O)COc1ccc(-c2ccccc2)cc1NS(=O)(=O)c1cc(C(=O)N2CCC2)cc(Cl)c1O [I-270, 2-([3-[5-(azetidine-1-carbonyl)-3-chloro-2-hydroxybenzenesulfonamido]-[1,1-biphenyl]-4-yl]oxy)acetic Acid]
CN(C)C(=O)c1cc(Cl)c(O)c(S(=O)(=O)Nc2cc(-c3ccccc3)ccc2C(=O)O)c1 [I-271, 3-((3-chloro-5-(dimethylcarbamoyl)-2-hydroxyphenyl)sulfonamido)-[1,1′-biphenyl]-4-carboxylic Acid]
O=C(O)c1ccc(-c2ccccc2)cc1NS(=O)(=O)c1cccc(Cl)c1 [I-273, 3-((3-chlorophenyl)sulfonamido)-[1,1′-biphenyl]-4-carboxylic acid]
O=C(O)c1ccc(-c2ccccc2)cc1NS(=O)(=O)CC1CCCC1 [I-274]
COc1ccc(-c2ccccc2)cc1NS(=O)(=O)c1cc(C(=O)N2CCNCC2)cc(Cl)c1O [I-277, 3-chloro-2-hydroxy-N-[4-methoxy-[1,1-biphenyl]-3-yl]-5-(piperazine-1-carbonyl)benzene-1-sulfonamide]
O=C(O)c1cc(-c2ccccc2)ccc1NS(=O)(=O)c1cc(Cl)cc(Cl)c1 [I-278, 4-((3,5-dichlorophenyl)sulfonamido)-[1,1′-biphenyl]-3-carboxylic acid]
CC(=O)N1CCCN(c2ccc(-c3ccccc3)cc2NS(=O)(=O)c2cc(Cl)cc(Cl)c2O)CC1 [I-279, N-[4-(4-acetyl-1,4-diazepan-1-yl)-[1,1-biphenyl]-3-yl]-3,5-dichloro-2-hydroxybenzene-1-sulfonamide]
O=C(Cc1cc(Cl)cc(Cl)c1)Nc1cc(-c2ccccc2)ccc1C(=O)O [I-280, 3-(2-(3,5-dichlorophenyl)acetamido)-[1,1′-biphenyl]-4-carboxylic Acid]
O=C(O)c1cc(Cl)c(O)c(S(=O)(=O)Nc2ccccc2F)c1 [I-283, 3-chloro-5-[(2-fluorophenyl)sulfamoyl]-4-hydroxybenzoic acid]
O=C(O)c1ccc(-c2ccccc2)cc1NS(=O)(=O)c1ccc(Cl)c(Cl)c1 [I-284, 3-((3,4-dichlorophenyl)sulfonamido)-[1,1′-biphenyl]-4-carboxylic acid]
O=S(=O)(Nc1ccccc1Oc1ccccc1)c1cc(Cl)cc(Cl)c1O [I-285, 3,5-dichloro-2-hydroxy-N-(2-phenoxyphenyl)benzene-1-sulfonamide]
O=C(O)c1ccc(-c2ccccc2)cc1NS(=O)(=O)c1cc(Cl)ccc1Cl [I-288, 3-((2,5-dichlorophenyl)sulfonamido)-[1,1′-biphenyl]-4-carboxylic acid]
O=S(=O)(Nc1cc(-n2nccn2)c(F)cc1F)c1cc(Cl)cc(Cl)c1O [I-290, 3,5-dichloro-N-[2,4-difluoro-5-(2H-1,2,3-triazol-2-yl)phenyl]-2-hydroxybenzene-1-sulfonamide]
O=C(O)CCCOc1ccc(-c2ccccc2)cc1NS(=O)(=O)c1cc(Cl)cc(Cl)c1 [I-291, 4-[[3-(3,5-dichlorobenzenesulfonamido)-[1,1-biphenyl]-4-yl]oxy]butanoic Acid]
O=C(O)c1ccc(-c2ccccc2)cc1NS(=O)(=O)c1cccc(C(F)(F)F)c1 [I-292, 3-((3-(trifluoromethyl)phenyl)sulfonamido)-[1,1′-biphenyl]-4-carboxylic acid]
O=C(O)c1ccc(-c2ccccc2)cc1NS(=O)(=O)c1cccnc1Cl [I-300]
O=C(O)c1ccc(-c2ccccc2)cc1NS(=O)(=O)c1ccc2[nH]ncc2c1 [I-301, 3-(1H-indazole-5-sulfonamido)-[1,1′-biphenyl]-4-carboxylic Acid]
O=C(O)c1cc(Br)cc(S(=O)(=O)Nc2cc(-c3ccccc3)ccc2C(=O)O)c1 [I-303, 3-((3-bromo-5-carboxyphenyl)sulfonamido)-[1,1′-biphenyl]-4-carboxylic Acid]
O=C(O)c1ccc(-c2ccccc2)cc1NS(=O)(=O)CC1CCC1 [I-307, 3-((cyclobutylmethyl)sulfonamido)-[1,1′-biphenyl]-4-carboxylic Acid]
O=C(O)COc1c(Cl)cc(Cl)cc1C(=O)Nc1cc(-c2ccccc2)ccc1C(=O)O [I-308, 3-(2-(carboxymethoxy)-3,5-dichlorobenzamido)-[1,1′-biphenyl]-4-carboxylic Acid]
O=C(NCc1cc(-c2ccccc2)ccc1C(=O)O)c1cc(Cl)cc(Cl)c1 [I-309, 3-((3,5-dichlorobenzamido)methyl)-[1,1′-biphenyl]-4-carboxylic Acid]
Cc1cccc(CS(=O)(=O)Nc2cc(-c3ccccc3)ccc2C(=O)O)c1 [I-310, 3-((m-tolylmethyl)sulfonamido)-[1,1′-biphenyl]-4-carboxylic acid]
O=C(O)c1ccc(-c2ccccc2)cc1NS(=O)(=O)c1cccc(C(F)(F)F)n1 [I-312, 3-((6-(trifluoromethyl)pyridine)-2-sulfonamido)-[1,1′-biphenyl]-4-carboxylic Acid]
COc1ccc(C)cc1S(=O)(=O)Nc1cc(-c2ccccc2)ccc1C(=O)O [I-313, 3-((2-methoxy-5-methylphenyl)sulfonamido)-[1,1′-biphenyl]-4-carboxylic Acid]
CC(=O)c1cccc(S(=O)(=O)Nc2cc(-c3ccccc3)ccc2C(=O)O)c1 [I-314, 3-((3-acetylphenyl)sulfonamido)-[1,1′-biphenyl]-4-carboxylic Acid]
COc1ccc(F)cc1S(=O)(=O)Nc1cc(-c2ccccc2)ccc1C(=O)O [I-315, 3-((5-fluoro-2-methoxyphenyl)sulfonamido)-[1,1′-biphenyl]-4-carboxylic Acid]
O=C(O)c1ccc(-c2ccccc2)cc1NS(=O)(=O)c1cc(Br)cs1 [I-319, 3-((4-bromothiophene)-2-sulfonamido)-[1,1′-biphenyl]-4-carboxylic acid]
NC(=O)COc1c(Cl)cc(Cl)cc1C(=O)Nc1cc(-c2ccccc2)ccc1C(=O)O [I-320, 3-(2-(2-amino-2-oxoethoxy)-3,5-dichlorobenzamido)-[1,1′-biphenyl]-4-carboxylic Acid]
Cc1ccc(C(=O)O)c(NS(=O)(=O)c2cc(Cl)cc(Cl)c2)c1 [I-321, 2-((3,5-dichlorophenyl)sulfonamido)-4-methylbenzoic Acid]
O=C(O)c1ccc(C(F)(F)F)cc1NS(=O)(=O)c1cc(Cl)cc(Cl)c1 [I-324, 2-((3,5-dichlorophenyl)sulfonamido)-4-(trifluoromethyl)benzoic Acid]
CN(c1cc(-c2ccccc2)c(F)cc1C(=O)O)S(=O)(=O)c1cc(Cl)cc(Cl)c1 [I-325, 5-((3,5-dichloro-N-methylphenyl)sulfonamido)-2-fluoro-[1,1′-biphenyl]-4-carboxylic Acid]
COCc1cc(Cl)cc(S(=O)(=O)Nc2cc(-c3ccccc3)ccc2C(=O)O)c1 [I-337]
O=C(O)c1c(NS(=O)(=O)c2cc(Cl)cc(Cl)c2)sc2c1CCC2 [I-341, 2-((3,5-dichlorophenyl)sulfonamido)-5,6-dihydro-4H-cyclopenta[b]thiophene-3-carboxylic acid]
O=C(O)c1ccc(-c2ccccc2)cc1NS(=O)(=O)c1cc(Cl)cc(Cl)c1F [I-342, 3-((3,5-dichloro-2-fluorophenyl)sulfonamido)-[1,1′-biphenyl]-4-carboxylic Acid]
O=C(O)c1cc(Cl)ccc1NS(=O)(=O)c1cc(Cl)cc(Cl)c1 [I-343, 5-chloro-2-((3,5-dichlorophenyl)sulfonamido)benzoic Acid]
Cc1nn(C)c(Cl)c1S(=O)(=O)Nc1cc(-c2ccccc2)ccc1C(=O)O [I-345, 3-((5-chloro-1,3-dimethyl-1H-pyrazole)-4-sulfonamido)-[1,1′-biphenyl]-4-carboxylic Acid]
COC(=O)c1ccc(-c2ccccc2)cc1NS(=O)(=O)c1cc(Cl)cnc1O [I-346, methyl 3-((5-chloro-2-hydroxypyridine)-3-sulfonamido)-[1,1′-biphenyl]-4-carboxylate]
Cc1noc(C)c1S(=O)(=O)Nc1cc(-c2ccccc2)ccc1C(=O)O [I-351, 3-((3,5-dimethylisoxazole)-4-sulfonamido)-[1,1′-biphenyl]-4-carboxylic Acid]
O=C(O)c1ccsc1NS(=O)(=O)c1cc(Cl)cc(Cl)c1 [I-352, 2-((3,5-dichlorophenyl)sulfonamido)thiophene-3-carboxylic Acid]
O=C(O)c1ccc(-c2ccccc2)cc1NS(=O)(=O)c1ccc(C(F)(F)F)cc1 [I-353, 3-((4-(trifluoromethyl)phenyl)sulfonamido)-[1,1′-biphenyl]-4-carboxylic acid]
COc1ccc(-c2ccccc2)cc1NS(=O)(=O)c1cc(Cl)c[nH]c1=O [I-354, 5-chloro-N-[4-methoxy-[1,1-biphenyl]-3-yl]-2-oxo-1,2-dihydropyridine-3-sulfonamide]
O=C(O)c1ccc(-c2ccccc2)cc1NS(=O)(=O)CCC1CCCC1 [I-356]
Cc1cc(S(=O)(=O)Nc2cc(-c3ccccc3)ccc2C(=O)O)ccc1-n1cnnn1 [I-357]
O=C(O)c1ccc(-c2ccccc2)cc1NS(=O)(=O)c1ccc(-n2cccn2)c(F)c1 [I-358]
O=C(O)c1ccc(-c2ccccc2)cc1NS(=O)(=O)c1cc(Br)cc2c1OCCNC2=O [I-359]
O=C(O)c1ccc(-c2ccccc2)cc1NS(=O)(=O)CCOCCN1C(=O)c2ccccc2C1=O [I-360]
